The values that follow come from PubChem BioAssay (NCI).

What all share (test): NCI anticancer screen, dose series, 48 h
The test system of test [1] is HCT-116 colon.
In test [2] the test system is SR leukemia.
Test [3] relates to CCRF-CEM leukemia.
Test [4] relates to RPMI-8226 leukemia.
Test [5] has as its system 786-0 renal.
For test [6], the system named is NCI-H460 lung.
Test [7] has as its system MALME-3M melanoma.
Test [8] concerns BT-549 breast.
Test [9] concerns MDA-MB-231 breast.
In test [10] the test system is HCC-2998 colon.

Several values for one entry are separate records, joined by “and”; a condition that tells them apart may be missing. Identical values can stand only once.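 Growth conditions: 96-well plates. Treatment: test compound, 48 hours, 5 concentrations. Analysis: linear interpolation between bracketing concentrations; unreached endpoints set to highest concentration. GI50 is the concentration that inhibits growth by half. Definition used: TGI = concentration required for complete inhibition of growth.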

As to `CCC1CCC2C3CC=C4CC(OC(C)=O)C(N)CC4(C)C3CCC12C` (stereo not given), the TGI in [1] is 6140 nM; in [2] it was 6070 nM; in test [3], 10000 nM; in test [4], 8300 nM; in [5] it was 3790 nM; in [6], 3530 nM. The TGI was determined as 8330 nM in [7], 10600 nM in test [8], 4090 nM in [9] and 3060 nM in test [10].

`Cc1ccc(C(=O)Nc2ccc(CN3CCN(C)CC3)c(C(F)(F)F)c2)cc1C#Cc1cnc(N)c2ccc(C#N)cc12`: the GI50 in test [1] is 167 nM; in [2] it was 135 nM; in test [3], 807 nM; in [4], 1080 nM; in test [5], 426 nM; in test [6] it was 557 nM. In addition, the GI50 in test [7] was 23.7 nM; in test [8], 10100 nM; in test [9], 230 nM; in test [10] it was 9410 nM. Moreover, the TGI in test [1] was 7300 nM; in test [3], 18000 nM; in test [4], 19400 nM; in test [5] it was 3790 nM; in [6], 16600 nM; in [7], 694 nM. Besides, the TGI in test [8] was above 50000 nM; in test [9], 2020 nM; in test [10], above 50000 nM.

`CC(C)C[C@H](NC(=O)[C@H](Cc1ccccc1)NC(=O)c1cnccn1)B(O)O`: the GI50 in test [1] is 1.08 nM; in [2], 2.19 nM; in [3] it was < 10 nM and 1.04 nM; in [4] it was 0.85 nM; in [5], 2.45 nM; in test [6] it was 18.3 nM and 4.68 nM. Moreover, the GI50 in test [7] was 1.16 nM; in [8], 1.03 nM; in [9], < 11.8 nM and 1.77 nM; in test [10] it was 0.597 nM. In addition, the TGI is < 16.1 nM and 3.28 nM in test [1]; 381 nM and 96.7 nM and 411 nM in [5]; 121 nM and 39.7 nM and 150 nM in [6]; < 45.4 nM and 19.4 nM in [7]; < 13.9 nM and 3.41 nM in [8]; 5.41 nM in test [9].

As to `CCCCCCCCCCCCCCCCSS(C)(=O)=O`, the TGI in [1] is 43500 nM; in test [2] it was 21100 nM; in test [3] it was 18400 nM; in test [4] it was 14100 nM; in [5], 27000 nM; in [6], above 75200 nM. For the same compound, the TGI was 24900 nM in test [7], above 100000 nM in test [8], above 100000 nM in [9] and above 72500 nM in test [10].

Regarding `COc1ccc2c(c1)O/C(=C\c1ccc([N+](=O)[O-])o1)C2=O`, the GI50 in [1] is 246 nM; in test [2], 178 nM; in [3], 340 nM; in [4], 367 nM; in test [5], 1990 nM; in test [6] it was 598 nM. Further, the GI50 is 2450 nM in test [7], 1560 nM in [8], 2030 nM in [9] and 1810 nM in test [10]. The TGI in test [1] turned out to be 747 nM; in [2], 964 nM; in test [3], 1700 nM; in test [4], 2330 nM; in test [5], 4830 nM; in test [6], 3890 nM. In addition, the TGI in [7] was 5770 nM; in [8] it was 3070 nM; in [9] it was 6630 nM; in [10], 3640 nM.

As to `CC[C@]12C=CCN3CC[C@@]4(c5ccc(OC)cc5N(C)[C@H]4[C@@](O)(C(=O)OC)[C@@H]1OC(=O)CCCC[P+](c1ccccc1)(c1ccccc1)c1ccccc1)[C@@H]32`, the GI50 in [1] is 777 nM; in test [2], 446 nM; in test [3] it was 789 nM; in test [4], 332 nM; in [5] it was 2330 nM; in [6] it was 1700 nM. Moreover, the GI50 in test [7] is 319 nM; in test [8] it was 465 nM; in test [9] it was 414 nM; in [10], 420 nM. In addition, the TGI in test [1] was 12000 nM; in test [2], 4140 nM; in test [3], 6460 nM; in test [4] it was 2110 nM; in [5], 6740 nM; in test [6] it was 11600 nM. Besides, the TGI in [7] stood at 1350 nM; in [8] it was 1940 nM; in [9] it was 1900 nM; in test [10], 2710 nM.

As for `Cc1cc(C)nc(NS(=O)(=O)c2ccc(Nc3nc4nc(NCc5ccccc5)nc(-c5ccc(O)cc5)c4c(=O)[nH]3)cc2)n1`, the GI50 was 23600 nM in test [1]; 17900 nM in test [2]; 54600 nM in [3]; above 100000 nM in test [4]; 66700 nM in [5]; 49900 nM in test [6]. Moreover, the GI50 in [7] was 32800 nM; in [8], 10800 nM; in test [9] it was 29600 nM; in test [10], above 100000 nM. Moreover, the TGI in test [1] is above 100000 nM; in [2], 81300 nM; in test [3], above 100000 nM; in test [4] it was above 100000 nM; in test [5], above 100000 nM; in test [6], above 100000 nM. For the same compound, the TGI in test [7] was above 100000 nM; in [8] it was 52900 nM; in test [9], above 100000 nM; in [10], above 100000 nM.
